In ChEMBL document CHEMBL1201862, “PubChem BioAssay data set” (2004):
Values joined by “and” are separate entries in the source; they are usually repeats but may differ in a detail not shown here. Equal entries are not always repeated.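 Following 48 hours of exposure in 96-well plates, responses at five concentrations were used to interpolate endpoints linearly. GI50 is the concentration that inhibits growth by half.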 Active and inactive are the calls of the source. Rule as the data show it: active = GI50 up to about 1.1 µM and inactive = higher.

Assays:
Assay in all cases: NCI anticancer screen, dose series, 48 h
[1] = test system: NCI-H226
[2] = test system: SK-MEL-5
[3] = test system: MDA-MB-231
[4] = test system: UACC-257
[5] = test system: RPMI-8226
[6] = test system: RXF 393
[7] = test system: LOX IMVI
[8] = test system: NCI-H522
[9] = test system: SNB-19
[10] = test system: SNB-75
[11] = test system: MDA-N
[12] = test system: HCC 2998
[13] = test system: SF-539
[14] = test system: ACHN
[15] = test system: SF-295
[16] = test system: NCI-H23
[17] = test system: OVCAR-3
[18] = test system: CCRF-CEM
[19] = test system: 786-0
[20] = test system: BT-549
[21] = test system: OVCAR-5
[22] = test system: NCI-H460
[23] = test system: SK-OV-3
[24] = test system: SN12C
[25] = test system: NCI/ADR-RES
[26] = test system: HOP-62
[27] = test system: EKVX
[28] = test system: SK-MEL-2
[29] = test system: A549
[30] = test system: U-251
[31] = test system: HCT-116
[32] = test system: MDA-MB-435
[33] = test system: SK-MEL-28
[34] = test system: SF-268
[35] = test system: SW-620
[36] = test system: T47D
[37] = test system: COLO 205
[38] = test system: CAKI-1
[39] = test system: A498
[40] = test system: OVCAR-4
[41] = test system: HCT-15
[42] = test system: PC-3
[43] = test system: UO-31
[44] = test system: MCF7
[45] = test system: M14
[46] = test system: TK-10
[47] = test system: DU-145
[48] = test system: HT-29
[49] = test system: Hs-578T
[50] = test system: HOP-92
[51] = test system: HL-60
[52] = test system: SR
[53] = test system: UACC-62
[54] = test system: KM12
[55] = test system: K562
[56] = test system: Malme-3M
[57] = test system: OVCAR-8
[58] = test system: IGROV-1
[59] = test system: MOLT-4

Measured: GI50

Cc1cc2[nH]c3c(C#N)c(-c4ccccc4)c(/N=N/c4ccc(F)cc4)c(=O)n3c2cc1C
36.6 µM: [41]
inactive: [1] > 100 µM | [2] 9.55 µM | [3] > 100 µM | [4] > 100 µM | [5] > 100 µM | [6] > 100 µM | [7] > 100 µM | [8] 18.5 µM | [9] > 100 µM | [10] 36.2 µM | [11] > 100 µM | [12] > 100 µM | [13] > 100 µM | [14] > 100 µM | [15] > 100 µM | [16] > 100 µM | [17] 3.21 µM | [18] > 100 µM | [19] 31 µM | [20] > 100 µM | [21] > 100 µM | [22] 83.9 µM | [23] > 100 µM | [24] > 100 µM | [25] > 100 µM | [26] > 100 µM | [27] > 100 µM | [28] > 100 µM | [29] 68.1 µM | [30] 42.5 µM | [31] 25.6 µM | [32] > 100 µM | [33] > 100 µM | [34] 35.9 µM | [35] > 100 µM | [36] 4.22 µM | [37] > 100 µM | [38] > 100 µM | [39] > 100 µM | [40] 91 µM | [42] > 100 µM | [43] > 100 µM | [44] > 100 µM | [45] > 100 µM | [46] > 100 µM

CC(C)(C)OC(=O)C1C(=O)NC(=O)CC1CC(OCc1ccccc1)C(OCc1ccccc1)C(COCc1ccccc1)OCc1ccccc1 (stereo not drawn)
inactive: [10] 15 µM and 11.1 µM | [12] 30.8 µM and 54.2 µM | [15] 54.8 µM and 28.3 µM | [47] > 100 µM and 54 µM | [17] 24.8 µM and 31.3 µM | [20] 24.9 µM and 14.6 µM | [21] 35.6 µM and 67.8 µM | [36] 29.3 µM | [48] 4.76 µM and 8.24 µM | [39] > 100 µM | [40] 31.6 µM and 21.1 µM | [49] 12 µM and 23.8 µM | [46] > 100 µM | [50] 17.5 µM and 13 µM

O=C(O)C1(C(=O)O)CC1(C(=O)O)C(=O)O
> 100 µM: [41]
inactive: [1] > 100 µM | [51] > 100 µM | [2] > 100 µM | [52] > 100 µM | [53] > 100 µM | [3] > 100 µM | [4] > 100 µM | [6] 32.6 µM | [7] > 100 µM | [8] > 100 µM | [54] > 100 µM | [9] > 100 µM | [10] > 100 µM | [12] > 100 µM | [13] > 100 µM | [14] > 100 µM | [15] > 100 µM | [16] > 100 µM | [47] > 100 µM | [18] > 100 µM | [19] > 100 µM | [20] > 100 µM | [21] > 100 µM | [22] > 100 µM | [55] > 100 µM | [23] > 100 µM | [24] > 100 µM | [25] > 100 µM | [26] > 100 µM | [27] > 100 µM | [56] > 100 µM | [57] > 100 µM | [28] > 100 µM | [29] > 100 µM | [30] > 100 µM | [31] > 100 µM | [33] > 100 µM | [34] > 100 µM | [35] > 100 µM | [36] > 100 µM | [48] > 100 µM | [37] > 100 µM | [58] > 100 µM | [38] > 100 µM | [59] > 100 µM | [40] > 100 µM | [42] > 100 µM | [43] > 100 µM | [44] > 100 µM | [45] > 100 µM | [49] > 100 µM | [46] > 100 µM
